Where two headings read alike, the source gives them in different places. One block for each compound: values may come before it.
Flux (Table 5: 2% 17β-estradiol, 2% 17-deacetynorgetimate, 20% PVP-CLM, 76% PIB adhesive): 0.20 μg/cm^2 /hr
SMILES: C[C@]12CC[C@@H]3c4ccc(O)cc4CC[C@H]3[C@@H]1CC[C@@H]2O [17β-estradiol]

Flux (Table 1: 2% TG + 4% OL, Duro-Tak 87-2287, 6% 17-d-Ngm, 1% EE): 0.061 ± 0.007 μg/cm^2 /hr
Flux (Table 1: 2% TG + 10% ML, Duro-Tak 87-2287, 6% 17-d-Ngm, 1% EE): 0.076 ± 0.005 μg/cm^2 /hr
Flux (Table 1: 2% TG + 10% PGML, Duro-Tak 87-2287, 6% 17-d-Ngm, 1% EE): 0.057 ± 0.009 μg/cm^2 /hr
Flux (Table 1: 3% TG, Duro-Tak 87-2287, 6% 17-d-Ngm, 1% EE): 0.043 ± 0.011 μg/cm^2 /hr
Flux (Table 1: 4% TG + 15% ML, Duro-Tak 87-2287, 6% 17-d-Ngm, 1% EE): 0.072 ± 0.002 μg/cm^2 /hr
Flux (Table 2: silicone 4202, 7% PVP, 2% 17-d-Ngm, 0.5% EE, 2% TG + 2% ML): 0.18 ± 0.02 μg/cm^2 /hr
Flux (Table 2: silicone 4202, 7% PVP, 4% 17-d-Ngm, 0.5% EE, 2% ML): 0.074 ± 0.008 μg/cm^2 /hr
Flux (Table 2: silicone 4202, 7% PVP, 4% 17-d-Ngm, 0.5% EE, 5% ML + 1% TG): 0.069 ± 0.007 μg/cm^2 /hr
Flux (Table 2: silicone 4202, 7% PVP, 6% 17-d-Ngm, 0.5% EE, 5% ML + 1% TG): 0.043 ± 0.004 μg/cm^2 /hr
Flux (Table 2: silicone 4202, 7% PVP, 6% 17-d-Ngm, 0.5% EE, 14% (TC:PGML; 80:20)): 0.062 ± 0.01 μg/cm^2 /hr
Flux (Table 2: silicone 4202, 7% PVP, 6% 17-d-Ngm, 0.5% EE, 14% PGML): 0.070 ± 0.01 μg/cm^2 /hr
Flux (Table 2: silicone 4202, 14% PVP, 4% 17-d-Ngm, 0.5% EE, 4% TG + 5% ML): 0.078 ± 0.01 μg/cm^2 /hr
Flux (Table 3: 0.1% EE, 1% 17-d-Ngm, 5% ML, 7% PVP-CLM, 86.9% silicone): 0.05 ± 0.002 μg/cm^2 /hr
Flux (Table 3: 0.1% EE, 1% 17-d-Ngm, 5% ML, 7% PVP-K30, 86.9% silicone): 0.04 ± 0.008 μg/cm^2 /hr
Flux (Table 4: PIB 1:5:4, 0.2% EE, 1.0% 17-d-Ngm, 20% PVP-CLM, 5% AMWAT): 0.05 ± 0.004 μg/cm^2 /hr
Flux (Table 4: PIB 1:5:4, 0.2% EE, 2.0% 17-d-Ngm, 20% PVP-CLM, 3% oleic acid): 0.06 ± 0.002 μg/cm^2 /hr
Flux (Table 4: PIB 1:5:4, 0.2% EE, 2.0% 17-d-Ngm, 20% PVP-CLM, 5% lauramide diethanoiamine): 0.06 ± 0.001 μg/cm^2 /hr
Flux (Table 4: PIB 1:5:4, 0.2% EE, 2.0% 17-d-Ngm, 20% PVP-CLM, 10% PGML): 0.09 ± 0.001 μg/cm^2 /hr
Flux (Table 4: PIB 1:5:4, 0.2% EE, 2.0% 17-d-Ngm, 20% PVP-CLM, 10/0.5% PGML/oleic acid): 0.10 ± 0.001 μg/cm^2 /hr
Flux (Table 4: PIB 1:5:4, 0.2% EE, 3.0% 17-d-Ngm, 20% PVP-CLM, 3% oleic acid): 0.04 ± 0.002 μg/cm^2 /hr
Flux (Table 4: PIB 1:5:4, 0.2% EE, 3.0% 17-d-Ngm, 20% PVP-CLM, 10% PGML): 0.07 ± 0.001 μg/cm^2 /hr
Flux (Table 4: PIB 1:5:4, 0.2% EE, 4.0% 17-d-Ngm, 20% PVP-CLM, 5% lauric acid N,N-dimethyl amide): 0.04 ± 0.001 μg/cm^2 /hr
Flux (Table 4: PIB 1:5:4, 0.3% EE, 4.0% 17-d-Ngm, 20% PVP-CLM, 8% PGIS): 0.10 ± 0.001 μg/cm^2 /hr
Flux (Table 4: PIB 1:5:4, 0.3% EE, 4.0% 17-d-Ngm, 20% PVP-CLM, 8/3% PGML/oleic acid): 0.14 ± 0.001 μg/cm^2 /hr
Flux (Table 4: PIB 1:5:4, 0.3% EE, 4.0% 17-d-Ngm, 20% PVP-CLM, 15% dibutylsebacate): 0.06 ± 0.005 μg/cm^2 /hr
Flux (Table 4: PIB 1:5:4, 0.3% EE, 4.0% 17-d-Ngm, 20% PVP-CLM, 15% ethyl oleate): 0.10 ± 0.001 μg/cm^2 /hr
Flux (Table 4: PIB 1:5:4, 0.3% EE, 4.0% 17-d-Ngm, 20% PVP-CLM, 15% isopropyl palmitate): 0.07 ± 0.001 μg/cm^2 /hr
Flux (Table 4: PIB 2:4:4, 0.3% EE, 4.0% 17-d-Ngm, 20% PVP-CLM, 20% propyl laurate): 0.06 ± 0.002 μg/cm^2 /hr
Flux (Table 6: 70.8% PIB, 20% PVP-CLM, 0.2% EE, 2% 71-d-Ngm, 7% lauryl lactate, skin permeability Low): 0.03 μg/cm^2 /hr
Flux (Table 6: 70.8% PIB, 20% PVP-CLM, 0.2% EE, 2% 71-d-Ngm, 7% lauryl lactate, skin permeability Medium): 0.08 μg/cm^2 /hr
Flux (Table 6: 72.8% PIB, 20% PVP-CLM, 0.2 EE, 2% 17-d-Ngm, 5% myristyl lactate, skin permeability not given): 0.09 μg/cm^2 /hr
Flux (Table 6: 72.85% PIB, 20% PVP-CLM, 0.15% EE, 5% lauryl lactate, skin permeability High): 0.08 μg/cm^2 /hr
Flux (Table 6: 72.85% PIB, 20% PVP-CLM, 0.15% EE, 5% lauryl lactate, skin permeability Low): 0.02 μg/cm^2 /hr
Flux (Table 6: 72.85% PIB, 20% PVP-CLM, 0.15% EE, 5% lauryl lactate, skin permeability Medium): 0.05 μg/cm^2 /hr
SMILES: C#C[C@]1(O)CC[C@H]2[C@@H]3CCc4cc(O)ccc4[C@H]3CC[C@@]21C [EE, ethinyl estradiol]

— US5876746A, “Transdermal patch and method for administering 17-deacetyl norgestimate alone or in combination with an estrogen” (Cygnus, Inc., priority 1996, dated 1999)
